Results: BindingDB's records for doi:10.1021/acs.jmedchem.3c01572 (China Pharmaceutical University, 2023)

biological target: Cyclin-dependent kinase 4/Cyclin D1; test: Inhibition of CDK4/Cyclin D1 (unknown origin)

| IC50 [µM] | SMILES |
| --- | --- |
| > 10 | COc1ccc(/C=C\c2cc(OC)c(OC)c(OC)c2)cc1NC(=O)CCC(=O)N[C@@H](CCCNC(=N)N)C(=O)O |

biological target: Neuropilin-1 (Homo sapiens) (UniProt O14786); test: Inhibition of [125I]-VEGF-A165 binding to NRP1 (unknown origin) transfected in HUVECs incubated for 2 hrs by plate reader analysis
Sequence (O14786 whole entry, looked up): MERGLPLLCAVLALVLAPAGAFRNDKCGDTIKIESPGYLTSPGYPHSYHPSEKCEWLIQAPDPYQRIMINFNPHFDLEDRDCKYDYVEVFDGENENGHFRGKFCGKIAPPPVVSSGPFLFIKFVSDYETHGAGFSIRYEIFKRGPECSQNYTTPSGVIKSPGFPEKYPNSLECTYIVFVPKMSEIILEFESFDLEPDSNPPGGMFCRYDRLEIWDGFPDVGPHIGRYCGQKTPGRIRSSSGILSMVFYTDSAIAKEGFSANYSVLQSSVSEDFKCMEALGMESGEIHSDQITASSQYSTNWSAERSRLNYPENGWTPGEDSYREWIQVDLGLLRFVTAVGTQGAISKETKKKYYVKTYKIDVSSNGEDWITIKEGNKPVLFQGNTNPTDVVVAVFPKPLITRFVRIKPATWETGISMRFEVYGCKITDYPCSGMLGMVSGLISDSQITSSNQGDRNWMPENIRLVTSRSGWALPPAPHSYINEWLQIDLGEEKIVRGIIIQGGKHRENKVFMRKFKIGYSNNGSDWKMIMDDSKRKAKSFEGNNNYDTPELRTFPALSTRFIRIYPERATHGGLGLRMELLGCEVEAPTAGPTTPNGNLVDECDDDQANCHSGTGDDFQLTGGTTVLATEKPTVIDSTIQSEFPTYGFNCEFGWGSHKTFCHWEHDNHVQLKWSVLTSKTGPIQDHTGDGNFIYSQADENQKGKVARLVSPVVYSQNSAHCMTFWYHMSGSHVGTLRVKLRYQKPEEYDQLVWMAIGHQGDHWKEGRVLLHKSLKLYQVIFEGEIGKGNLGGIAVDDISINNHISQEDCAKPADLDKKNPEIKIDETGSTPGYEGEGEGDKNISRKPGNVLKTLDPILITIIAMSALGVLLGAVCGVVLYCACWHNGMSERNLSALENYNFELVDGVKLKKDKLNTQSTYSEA

| IC50 [µM] | SMILES |
| --- | --- |
| 2.91 | NC(N)=NCCC[C@H](NC(=O)c1sccc1NS(=O)(=O)c1cccc2nsnc12)C(=O)O [(S)-2-(3-(benzo[c][1,2,5]thiadiazole-4-sulfonamido)thiophene-2-carboxamido)-5-guanidinopentanoic acid] |
| 3.91 | COc1ccc(/C=C\c2cc(OC)c(OC)c(OC)c2)cc1NC(=O)/C=C/C(=O)N[C@@H](CCCNC(=N)N)C(=O)O |
| 15 | COc1ccc(/C=C\c2cc(OC)c(OC)c(OC)c2)cc1NC(=O)CCCCCCC(=O)N[C@@H](CCCNC(=N)N)C(=O)O |
| 8.94 | COc1ccc(/C=C\c2cc(OC)c(OC)c(OC)c2)cc1NC(=O)CCCCC(=O)N[C@@H](CCCNC(=N)N)C(=O)O |
| 6.33 | COc1ccc(/C=C\c2cc(OC)c(OC)c(OC)c2)cc1NC(=O)CCCC(=O)N[C@@H](CCCNC(=N)N)C(=O)O |
| 0.85 | COc1ccc(/C=C\c2cc(OC)c(OC)c(OC)c2)cc1NC(=O)CCC(=O)N[C@@H](CCCNC(=N)N)C(=O)O |
